Test results reported in patent publication US8497245B2, “Trypsin-like serine protease inhibitors, their preparation and use as selective inhibitors of the clotting factors IIa and Xa” (The Medicines Company (Leipzig) GmbH, priority 2010, dated 2013).
Structures can show the parent of a compound that is named as a salt.

Key:
[1] = target: T1, human factor IIa (human alpha-thrombin) (Homo sapiens, UniProt P00734); assay: Inhibition constants for human factor IIa, chromogenic substrate assay; type: biochemical; conditions: 25° C., Pefachrome tPA substrate, average of at least three determinations; read-out: Ki h FIIa
T1 construct: human alpha-thrombin from Enzyme Research Laboratories; purchased Enzyme Research Laboratories
Summary of the method: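 Absorbance at 405 nm tracked p-nitroaniline liberated by each purified enzyme (human thrombin or human factor Xa) in pH 8.0 TBS containing 0.154 M NaCl and 2% ethanol. Equilibrium rates were fitted by competitive-inhibition kinetics to give Ki; values are means of ≥3 runs.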

[2] = target: T2, Human plasmin (h plasmin) (Homo sapiens, UniProt P00747); assay: Inhibition of human plasmin (reference enzyme); type: biochemical; conditions: Chromozym PL substrate
T2 construct: purchased Calbiochem
T2 sequence (P00747 581-810 limits assumed): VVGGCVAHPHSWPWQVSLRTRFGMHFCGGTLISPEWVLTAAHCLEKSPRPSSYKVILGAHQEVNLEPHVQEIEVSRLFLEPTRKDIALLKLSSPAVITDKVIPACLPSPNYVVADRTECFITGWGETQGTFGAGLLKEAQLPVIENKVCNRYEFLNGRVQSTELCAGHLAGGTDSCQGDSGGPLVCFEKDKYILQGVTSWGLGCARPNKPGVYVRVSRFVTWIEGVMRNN
T2 sequence (P00747 97-580 partner limits assumed): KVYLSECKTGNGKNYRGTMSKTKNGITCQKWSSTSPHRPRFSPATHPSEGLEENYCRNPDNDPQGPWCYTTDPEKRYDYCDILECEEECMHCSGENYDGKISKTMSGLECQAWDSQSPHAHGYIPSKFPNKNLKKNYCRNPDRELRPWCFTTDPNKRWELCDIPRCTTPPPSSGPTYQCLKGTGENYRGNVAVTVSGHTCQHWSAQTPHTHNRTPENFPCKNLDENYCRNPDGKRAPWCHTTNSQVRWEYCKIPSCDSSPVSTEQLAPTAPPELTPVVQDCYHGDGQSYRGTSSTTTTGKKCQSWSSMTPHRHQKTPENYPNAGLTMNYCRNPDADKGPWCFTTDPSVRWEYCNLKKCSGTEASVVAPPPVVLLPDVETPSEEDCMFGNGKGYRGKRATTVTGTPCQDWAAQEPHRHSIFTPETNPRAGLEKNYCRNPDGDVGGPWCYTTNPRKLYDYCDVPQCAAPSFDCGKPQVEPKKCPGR
Summary of the method: (§1)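 Abs 405 nm (p-NA release from chromogenic substrate) with purified enzyme; equilibrium rates fit to competitive-inhibition equation → Ki, nM; mean of ≥3 runs.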

human Factor Xa = target: T3, human Factor Xa (Homo sapiens, UniProt P00742); assay: Inhibition constants for human factor Xa, chromogenic substrate assay; type: biochemical; conditions: 25° C., Pefachrome FXa substrate, average of at least three determinations; read-out: Ki h FXa
T3 construct: human Factor Xa from Enzyme Research Laboratories; purchased Enzyme Research Laboratories
T3 sequence (P00742 235-488 limits assumed): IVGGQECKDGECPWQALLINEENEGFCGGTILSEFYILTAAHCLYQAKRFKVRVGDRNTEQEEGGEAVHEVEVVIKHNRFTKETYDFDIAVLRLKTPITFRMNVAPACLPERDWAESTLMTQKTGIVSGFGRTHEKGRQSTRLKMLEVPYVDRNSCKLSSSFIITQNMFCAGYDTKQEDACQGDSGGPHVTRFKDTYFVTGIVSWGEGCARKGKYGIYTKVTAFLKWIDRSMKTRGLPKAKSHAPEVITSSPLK
T3 sequence (P00742 41-179 partner limits assumed): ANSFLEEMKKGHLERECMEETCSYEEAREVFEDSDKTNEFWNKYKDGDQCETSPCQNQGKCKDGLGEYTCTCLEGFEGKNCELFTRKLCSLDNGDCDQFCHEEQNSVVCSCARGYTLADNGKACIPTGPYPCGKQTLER
Summary of the method: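 Each purified protease is incubated with inhibitor and chromogenic substrate in Tris-buffered saline at pH 8.0 with 2% ethanol. Proteolytic activity is measured as p-nitroaniline formation at 405 nm, and dissociation constants are obtained by fitting equilibrium rates to a competitive model.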

[3] = target: T4, Human plasma kallikrein (h PK) (Homo sapiens, UniProt P03952); assay: Inhibition of human plasma kallikrein (reference enzyme); type: biochemical; conditions: S2302 substrate
T4 construct: purchased Enzyme Research Laboratories
T4 sequence (P03952 391-638 limits assumed): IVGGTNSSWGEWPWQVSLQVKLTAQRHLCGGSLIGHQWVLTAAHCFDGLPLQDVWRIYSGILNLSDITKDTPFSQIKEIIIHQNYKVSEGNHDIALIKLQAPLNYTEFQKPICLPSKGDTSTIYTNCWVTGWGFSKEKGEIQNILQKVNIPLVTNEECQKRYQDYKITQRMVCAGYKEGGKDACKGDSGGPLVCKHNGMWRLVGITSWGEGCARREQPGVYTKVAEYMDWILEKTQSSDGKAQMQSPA
T4 sequence (P03952 20-390 partner limits assumed): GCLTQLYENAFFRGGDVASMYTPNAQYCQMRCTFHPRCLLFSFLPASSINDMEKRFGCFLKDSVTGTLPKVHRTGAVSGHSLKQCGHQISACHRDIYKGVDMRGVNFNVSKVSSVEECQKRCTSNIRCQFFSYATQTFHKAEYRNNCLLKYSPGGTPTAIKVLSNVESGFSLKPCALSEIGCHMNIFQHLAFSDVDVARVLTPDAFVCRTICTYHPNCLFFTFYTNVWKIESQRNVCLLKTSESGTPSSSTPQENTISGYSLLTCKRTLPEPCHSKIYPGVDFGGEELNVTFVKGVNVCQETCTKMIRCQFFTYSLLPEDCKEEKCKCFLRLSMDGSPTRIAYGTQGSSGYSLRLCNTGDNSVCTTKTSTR
Summary of the method: as §1

[4] = target: T5, Human urinary kallikrein (h uKK) (Homo sapiens, UniProt P06870); assay: Inhibition of human urinary kallikrein (reference enzyme); type: biochemical; conditions: S-2266 substrate
T5 construct: purchased Lee Biosolutions
T5 sequence (P06870 25-262): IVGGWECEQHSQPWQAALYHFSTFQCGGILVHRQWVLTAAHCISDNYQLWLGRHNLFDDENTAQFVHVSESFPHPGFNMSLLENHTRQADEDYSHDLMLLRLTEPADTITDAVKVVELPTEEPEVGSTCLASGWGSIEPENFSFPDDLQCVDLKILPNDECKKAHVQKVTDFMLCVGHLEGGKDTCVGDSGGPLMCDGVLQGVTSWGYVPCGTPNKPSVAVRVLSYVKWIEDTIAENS
Summary of the method: as §1

[5] = target: T6, Human tissue-type plasminogen activator (h t-PA) (Homo sapiens, UniProt P00750); assay: Inhibition of human tissue-type plasminogen activator (reference enzyme); type: biochemical; conditions: Pefachrome tPA substrate; read-out: Ki h t-PA
T6 construct: purchased Boehringer Ingelheim Actilyse
T6 sequence (P00750 36-562): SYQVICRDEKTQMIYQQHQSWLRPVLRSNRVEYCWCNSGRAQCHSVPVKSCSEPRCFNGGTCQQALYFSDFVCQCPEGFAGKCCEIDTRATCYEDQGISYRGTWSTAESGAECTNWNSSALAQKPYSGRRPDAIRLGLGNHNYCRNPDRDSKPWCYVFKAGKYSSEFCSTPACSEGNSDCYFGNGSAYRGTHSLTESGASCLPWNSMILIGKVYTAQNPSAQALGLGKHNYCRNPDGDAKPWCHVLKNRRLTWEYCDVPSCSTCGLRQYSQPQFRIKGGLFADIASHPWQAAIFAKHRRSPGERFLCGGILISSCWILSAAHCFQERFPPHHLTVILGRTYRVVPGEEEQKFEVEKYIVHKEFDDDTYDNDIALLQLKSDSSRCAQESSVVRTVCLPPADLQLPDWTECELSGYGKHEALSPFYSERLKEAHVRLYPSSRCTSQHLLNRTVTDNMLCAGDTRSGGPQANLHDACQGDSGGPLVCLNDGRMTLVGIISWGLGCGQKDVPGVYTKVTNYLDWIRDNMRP
Method: The equilibrium rates were used to calculate the inhibitor/enzyme dissociation constant (Ki values) by parameter fitting in accordance with the rate equation for competitive inhibition using GraFit (version 4 from Erithacus).
Dissociation constants were calculated as described herein.

[6] = target: T7, Human Activated Protein C (h aPC) (Homo sapiens, UniProt P04070); assay: Inhibition of human activated protein C (reference enzyme); type: biochemical; conditions: Pefachrome PCa substrate
T7 construct: purchased Enzyme Research Laboratories
T7 sequence (P04070 212-450 limits assumed): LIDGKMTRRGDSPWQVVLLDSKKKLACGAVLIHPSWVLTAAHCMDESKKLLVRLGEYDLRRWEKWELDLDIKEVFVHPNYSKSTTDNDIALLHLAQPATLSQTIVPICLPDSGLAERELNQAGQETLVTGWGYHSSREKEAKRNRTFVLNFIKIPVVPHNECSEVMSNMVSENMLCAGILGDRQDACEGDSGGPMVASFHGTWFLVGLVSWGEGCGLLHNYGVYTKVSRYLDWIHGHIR
T7 sequence (P04070 43-197 partner limits assumed): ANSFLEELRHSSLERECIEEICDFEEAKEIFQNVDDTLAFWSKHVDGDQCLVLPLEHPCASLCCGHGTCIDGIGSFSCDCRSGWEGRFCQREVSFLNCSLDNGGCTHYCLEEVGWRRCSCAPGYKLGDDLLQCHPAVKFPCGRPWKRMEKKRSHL
Summary of the method: as §1

[7] = target: T8, Subcomponent "s" of Human Complement Component 1 (h C1s) (Homo sapiens, UniProt P09871); assay: Inhibition of human C1s (reference enzyme); type: biochemical; conditions: S-2314 substrate; read-out: Ki h Cls
T8 construct: purchased Calbiochem
T8 sequence (P09871 438-688 limits assumed): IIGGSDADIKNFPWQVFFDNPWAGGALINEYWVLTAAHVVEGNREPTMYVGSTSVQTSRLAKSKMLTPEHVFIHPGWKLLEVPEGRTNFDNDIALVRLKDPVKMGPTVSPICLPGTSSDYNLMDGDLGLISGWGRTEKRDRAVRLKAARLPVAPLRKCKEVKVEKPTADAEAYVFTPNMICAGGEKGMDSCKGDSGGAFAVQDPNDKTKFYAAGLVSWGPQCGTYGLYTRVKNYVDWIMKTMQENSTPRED
T8 sequence (P09871 16-437 partner limits assumed): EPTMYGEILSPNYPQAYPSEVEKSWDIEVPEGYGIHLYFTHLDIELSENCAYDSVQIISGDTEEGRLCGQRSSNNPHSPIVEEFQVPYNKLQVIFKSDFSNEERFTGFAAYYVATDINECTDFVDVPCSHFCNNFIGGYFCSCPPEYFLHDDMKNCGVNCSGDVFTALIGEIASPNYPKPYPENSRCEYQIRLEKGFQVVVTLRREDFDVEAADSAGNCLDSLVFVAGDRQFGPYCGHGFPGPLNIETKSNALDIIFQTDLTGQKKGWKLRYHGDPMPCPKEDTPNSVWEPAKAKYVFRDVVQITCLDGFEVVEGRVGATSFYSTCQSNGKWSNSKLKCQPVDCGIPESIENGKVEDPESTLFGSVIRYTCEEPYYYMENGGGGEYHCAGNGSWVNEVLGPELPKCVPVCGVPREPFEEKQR
Summary of the method: as §1

[8] = target: T9, Human urokinase type plasminogen activator (h u-PA) (Homo sapiens, UniProt P00749); assay: Inhibition of human urokinase type plasminogen activator (reference enzyme); type: biochemical; conditions: H-Glu-Gly-Arg-pNA substrate
T9 construct: purchased MEDAC GmbH Urokinase HS medac
Summary of the method: as §1

[9] = target: T10, Subcomponent "r" of Human Complement Component 1 (h C1r) (Homo sapiens, UniProt P00736); assay: Inhibition of human C1r (reference enzyme); type: biochemical; conditions: S-2314 substrate; read-out: Ki h Clr
T10 construct: purchased Calbiochem
T10 sequence (P00736 464-705 limits assumed): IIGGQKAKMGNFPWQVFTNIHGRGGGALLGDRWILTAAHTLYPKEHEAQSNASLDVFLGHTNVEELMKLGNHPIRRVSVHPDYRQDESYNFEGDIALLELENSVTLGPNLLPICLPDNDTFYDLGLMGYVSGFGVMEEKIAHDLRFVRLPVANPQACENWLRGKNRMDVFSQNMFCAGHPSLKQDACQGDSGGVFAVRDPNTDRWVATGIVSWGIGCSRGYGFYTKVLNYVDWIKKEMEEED
T10 sequence (P00736 18-463 partner limits assumed): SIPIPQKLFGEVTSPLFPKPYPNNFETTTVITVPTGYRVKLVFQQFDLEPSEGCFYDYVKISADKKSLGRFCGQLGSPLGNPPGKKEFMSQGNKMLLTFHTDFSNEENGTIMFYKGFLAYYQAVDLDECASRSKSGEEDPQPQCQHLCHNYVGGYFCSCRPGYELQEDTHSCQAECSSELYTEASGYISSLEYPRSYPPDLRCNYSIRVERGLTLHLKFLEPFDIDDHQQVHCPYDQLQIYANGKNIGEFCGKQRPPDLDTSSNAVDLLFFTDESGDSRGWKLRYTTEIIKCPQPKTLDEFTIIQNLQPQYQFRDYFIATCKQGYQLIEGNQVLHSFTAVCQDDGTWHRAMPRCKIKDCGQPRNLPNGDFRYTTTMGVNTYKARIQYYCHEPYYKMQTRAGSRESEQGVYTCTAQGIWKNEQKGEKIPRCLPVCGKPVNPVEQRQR
Summary of the method: as §1

thrombin and FXa = conditions: literature value; cited from earlier work

Row | Compound | Ki [1] [nM] | Ki [2] [µM] | Ki (human Factor Xa) [nM] | Ki [3] [µM] | Ki [4] [µM] | Ki [5] [µM] | Ki [6] [µM] | Ki [7] [µM] | Ki [8] [µM] | Ki [9] [µM] | FXa/thrombin ratio (thrombin and FXa)
1 | NCc1ccc(Cl)cc1CNC(=O)[C@@H]1CCCN1C(=O)[C@@H](CC(=O)O)NS(=O)(=O)Cc1ccccc1 [Compound 2.46] | 12.2 | > 10 | 1320 | > 50 | > 20 | > 50 | > 40 | > 50 | > 50 | > 100 | –
2 | CN(CC1CCOCC1)C(=O)C[C@@H](NS(=O)(=O)Cc1ccccc1)C(=O)N1CCC[C@H]1C(=O)NCc1cc(Cl)ccc1CN [Compound 2.47, Bzls-D-Asp((tetrahydro-2H-pyran-4-yl)-N-methylmethanamine)-L-Pro-Amb(2-AMe-5-Cl)×2 TFA] | 0.32 | > 15 | 2 | 0.304 | > 20 | > 50 | > 100 | > 100 | > 100 | > 10 | –
3 | NCc1ccc(Cl)cc1CNC(=O)[C@@H]1CCCN1C(=O)[C@H](N)CCC(=O)N1CCOCC1 [Compound 2.49, H-D-Glu(morpholino)-L-Pro-Amb(2-AMe-5-Cl)×2 TFA] | 8 | > 100 | 134 | > 10 | > 100 | > 100 | > 10 | > 100 | > 100 | > 10 | –
4 | NCc1ccc(Cl)cc1CNC(=O)[C@@H]1CCN1C(=O)[C@@H](CC(=O)N1CCNCC1)NS(=O)(=O)Cc1ccccc1 [Compound 2.50, Bzls-D-Asp(piperazinyl)-L-Aze-Amb(2-AMe-5-Cl)×2 TFA] | 14 | > 15 | 5.2 | 3.34 | > 100 | > 20 | > 100 | > 100 | > 25 | > 100 | –
5 | Cc1cccc(S(=O)(=O)Nc2ccc(C)n(CC(=O)NCCON=C(N)N)c2=O)c1 [RWJ445167] | – | – | – | – | – | – | – | – | – | – | < 0.02
6 | Cn1c(CNc2ccc(C(=N)N)cc2)nc2cc([C@@](C)(NCC(=O)O)C(=O)N3CCCC3)ccc21 [Tanogitran] | – | – | – | – | – | – | – | – | – | – | 0.1
